Literature values, collected in patent US20250177296A1, “SLURRY AND SOLUTION COMPOSITIONS” (MIRAKI INNOVATION THINK TANK LLC, priority 2018, published 2025).

Details: pretreatment with 2% lidocaine

## CCN(CC)CC(=O)Nc1c(C)cccc1C [lidocaine]
  Effect of pretreatment on pain response associated with hypertonic saline: attenuates pain response
